Results taken from patent US11649238B2, “Substituted pyrazolo[1,5-a]pyrimidines as PI4K inhibitors” (GLAXOSMITHKLINE INTELLECTUAL PROPERTY DEVELOPMENT LIMITED, priority 2018, dated 2023).

Legend:
PI4KIIIβ = PI4KIIIβ (Homo sapiens, UniProt Q9UBF8); experiment: Residence Time Assay (Caliper conditioning assay and jump dilution); format: biochemical; conditions: jump dilution, 2 mM ATP, 1 μM Bodipy-PI
Protocol: Caliper Conditioning Assay
Compound dilutions were prepared in 100% DMSO using a 1 in 3 serial step dilution and a top concentration of 1 mM. A 200 nL stamp from a 12-point titration was transferred to a black 384-well Greiner assay plate ensuring a final DMSO concentration of 1% across the plate and a top final concentration of inhibitor of 10 μM in 20 μL final assay volume. To a well of a 384-well assay plate 10 μL of 2× Enzyme buffer was pre-incubated with compound for 1 h. Buffer without enzyme was used as 100%-inh control. 10 μL of 2× substrate solution was added to initiate the assay such that the final concentrations were 2 mM ATP and 1 μM Bodipy-PI and the plate was incubated at 25° C. for 3 hours. The enzymatic reaction was terminated by adding 40 μL of stop buffer and Substrate (PI) and product (PIP) present in each sample were separated electrophoretically using a LabChip 3000 capillary electrophoresis instrument CALIPER LABCHIP 3000 Drug Discovery System and detected using blue laser (480 nm) for excitation and green CCD (520 nm) for detection (CCD2). Negative control samples (0%-inhibition in the absence of inhibitor) and positive control samples (100%-inhibition, in the absence of enzyme) were assembled in replicates of 48 (4 replicates per caliper sipper) and were used to calculate %-inhibition values in each test well. Percent inhibition (Pinh) was determined using following equation: Pinh=(PSRO %−PSRinh)/(PSRO %−PSR100%)×100
Where PSRinh is the product sum ratio in the presence of inhibitor, PSRO % is the average product sum ratio in the absence of inhibitor and PSR100% is the average product sum ratio in 100%-inhibition control samples; the IC50 values of inhibitors are determined by fitting the inhibition curves (Pinh versus inhibitor concentration) to the 4 parameter sigmoid dose-response model using XLfit 4 software (IBDS).
In a small Eppendorf tube, 5 μL of 2× enzyme solution (0.4 μM-0.8 μM) was mixed with 5 μL 2× compound solution containing 40 to 120-fold the IC50 value determined at 2 mM ATP as described above, and incubated for 1 h at room temperature. The assay was initiated by rapidly mixing 2 μL of the enzyme preincubation mixture with 800 μL substrate mix containing 2 mM ATP and 1 μM Bodipy-PI. 60 μL of each sample was transferred into low volume Greiner 384-well plate, and the Substrate (PI) and product (PIP) present in each sample were separated electrophoretically using a LabChip 3000 capillary electrophoresis instrument CALIPER LABCHIP 3000 Drug Discovery System and detected using blue laser (480 nm) for excitation and green CCD (520 nm) for detection (CCD2) for approximately 8 h (200 measurements from each well). […]

[1] = system: human rhinovirus Type A Strain 16 (HRVA16) in HeLa Ohio cells; experiment: Cytopathic Effect (CPE) Assay, ATP-depletion in infected HeLa Ohio cells; format: cell-based; conditions: HRVA16 at MOI of 1, 33° C. for 2 days, CellTiter-Glo
Protocol: c) Cytopathic Effect (CPE) Assay Protocol
The in vitro inhibition of PI4 KB activity was determined by analysis of the inhibition of ATP-depletion in HeLa Ohio cells in response to infection with human rhinovirus Type A Strain 16 (HRVA16). ATP levels were determined using CellTiter-GLO reagent from Promega. Compounds that inhibit PI4 KB are also potent inhibitors of human rhinoviruses and are able to protect HeLa Ohio cells from CPE induced by viral infection and replication. Protected cells remain viable following viral infection and therefore have greater ATP levels.
Compounds were dissolved in 100% DMSO to a concentration of 3 mM and subsequent dilutions were prepared in 100% DMSO using a 1:3 serial step dilution. A 0.5 μL stamp from an 10-point titration was transferred to a white 96 well Greiner tissue culture flat bottom plate (655083). A 0.5 μL stamp of 100% DMSO was stamped into columns 11 and 12 of the plate, ensuring a final assay DMSO concentration of 0.33% across the plate and a compound top final assay concentration of 10 μM.
HeLa Ohio cells were cultured at 37° C., 5% CO2 in media (DMEM supplemented with 10% Australian origin foetal bovine serum and 2 mM glutamax). Cells were passaged when confluency reached >80%. For the assay, cells were grown to 80-90% confluency before detachment.
Cells were detached for the assay by washing with PBS and detached using 3 mL TrypLE Express for […] at 37° C. Detached cells were mixed with 7 mL of media and centrifuged at 300 g for 5 min. The cell pellet was resuspended in 50 mL media and counted on a Beckman Coulter ViCell. Cells were diluted to 6.6×10^4 cells/mL and some of the cell volume was removed into a new tube to be used as a column 12 control. HRVA16 stock was added to the remaining cell suspension at the appropriate dilution for the virus stock to achieve an MOI of 1.
150 μL of the cell+virus suspension was added per well to columns 1-11 using a Multidrop Combi. 150 μL of the separate cell suspension was added per well to columns 12 using a multichannel pipette. Assay plates were sealed and incubated at 33° C., 5% CO2 for 2 days. After 2 days, assay plates were removed from the incubator and allowed to equilibrate to room temperature. 60 μL of CellTiter-Glo reagent was added to all wells using a Thermo Scientific Multidrop Combi. Plates were incubated at room temperature for 20 min before reading on an a Perkin Elmer Envision (Settings: Gripper height 2.5, Fixed measurement height (mm) 6.5, Distance between plate and detector 0, Measurement time (s) 0.1, Glow (ct2) correction factor (0%)).
The inhibitory effect of the compounds on the PI4 KB activity was evaluated by the IC50 of the response relative to the high (no virus, column 12) and low (virus+no inhibitor, column 11) controls by fitting to a four parameter dose response equation.

Sequence of PI4KIIIβ (Q9UBF8 whole entry): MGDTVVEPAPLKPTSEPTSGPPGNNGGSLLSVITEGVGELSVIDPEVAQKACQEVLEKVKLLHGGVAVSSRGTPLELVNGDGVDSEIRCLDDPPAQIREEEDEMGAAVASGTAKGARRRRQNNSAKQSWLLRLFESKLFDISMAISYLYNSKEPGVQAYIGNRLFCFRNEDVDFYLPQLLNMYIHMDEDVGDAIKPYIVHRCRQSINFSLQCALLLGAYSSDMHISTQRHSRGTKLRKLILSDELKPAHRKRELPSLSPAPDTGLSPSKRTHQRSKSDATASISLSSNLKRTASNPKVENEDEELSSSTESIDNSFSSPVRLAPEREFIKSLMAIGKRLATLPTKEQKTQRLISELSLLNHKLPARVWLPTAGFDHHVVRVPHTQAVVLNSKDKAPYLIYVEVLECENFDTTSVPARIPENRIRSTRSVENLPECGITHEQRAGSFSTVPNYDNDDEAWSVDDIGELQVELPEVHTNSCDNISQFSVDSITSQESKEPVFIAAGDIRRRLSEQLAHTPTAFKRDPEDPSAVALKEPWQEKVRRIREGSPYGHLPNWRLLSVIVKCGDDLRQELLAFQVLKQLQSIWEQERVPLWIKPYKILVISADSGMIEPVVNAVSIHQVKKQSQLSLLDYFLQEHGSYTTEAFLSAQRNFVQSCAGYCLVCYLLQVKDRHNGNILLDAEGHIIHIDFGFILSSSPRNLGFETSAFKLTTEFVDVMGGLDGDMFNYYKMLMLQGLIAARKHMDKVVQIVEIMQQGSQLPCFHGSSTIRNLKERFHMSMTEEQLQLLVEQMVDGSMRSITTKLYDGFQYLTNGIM

Row | residence time (PI4KIIIβ) | mean pIC50 [1] | Compound
1 | 528 min | 8.8 | COc1ccc(-c2c(C)nn3c(NCc4cccc(-c5nccn5C)c4)cc(C(C)(C)O)nc23)cc1C(=O)N(C)C1CCOCC1 [Compound 21, 5-(5-(2-Hydroxypropan-2-yl)-2-methyl-7-((3-(1-methyl-1H-imidazol-2-yl)benzyl)amino)pyrazolo[1,5-a]pyrimidin-3-yl)-2-methoxy-N-methyl-N-(tetrahydro-2H-pyran-4-yl)benzamide]
2 | 997 min | 8.9 | CCN(CCO)C(=O)c1cc(-c2c(C)nn3c(NCc4cccc(-c5nccn5C)c4)cc(C(C)(C)O)nc23)ccc1OC [Compound 19, N-ethyl-N-(2-hydroxyethyl)-5-(5-(2-hydroxypropan-2-yl)-2-methyl-7-((3-(1-methyl-1H-imidazol-2-yl)benzyl)amino)pyrazolo[1,5-a]pyrimidin-3-yl)-2-methoxybenzamide]
3 | 1670 min | at least 9.1 | Cc1ccc(-c2c(C)nn3c(NCc4cccc(-c5nccn5C)c4)cc(C(C)(C)O)nc23)cc1C(=O)N(C)[C@@H](C)CO [Compound 22, (S)—N-(1-hydroxypropan-2-yl)-5-(5-(2-hydroxypropan-2-yl)-2-methyl-7-((3-(1-methyl-1H-imidazol-2-yl)benzyl)amino)pyrazolo[1,5-a]pyrimidin-3-yl)-N,2-dimethylbenzamide]
4 | 542 min | 8.9 | Cc1ccc(-c2c(C)nn3c(NCc4cccc(-c5nccn5C)c4)cc(C(C)(C)O)nc23)cc1C(=O)N(C)CCCO [Compound 17, 5-(5-(2-Hydroxypropan-2-yl)-2-methyl-7-((3-(1-methyl-1H-imidazol-2-yl)benzyl)amino)pyrazolo[1,5-a]pyrimidin-3-yl)-N-(3-hydroxypropyl)-N,2-dimethylbenzamide]
